This is an account of results in patent publication US20120095028A1, “3-OXA-7-AZABICYCLO[3.3.1]NONANES” (Pfizer Inc., priority 2009, published 2012).

The target of this assay is T1, human GPR119 (Homo sapiens, UniProt Q8TDV5).
T1 construct: host or cells: HEK293-CRE-β-lactamase cells expressing hGPR119
T1 sequence (Q8TDV5 1-335): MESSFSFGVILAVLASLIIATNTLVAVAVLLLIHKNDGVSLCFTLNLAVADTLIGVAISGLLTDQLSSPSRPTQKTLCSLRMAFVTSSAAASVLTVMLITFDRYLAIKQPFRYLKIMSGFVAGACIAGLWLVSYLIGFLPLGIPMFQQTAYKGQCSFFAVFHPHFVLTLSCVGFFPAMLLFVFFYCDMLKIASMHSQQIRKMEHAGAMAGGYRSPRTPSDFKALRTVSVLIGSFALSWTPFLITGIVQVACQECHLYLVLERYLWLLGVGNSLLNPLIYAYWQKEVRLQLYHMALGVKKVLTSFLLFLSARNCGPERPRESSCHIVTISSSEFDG
The assay can be described thus: GPR119 agonist cell-based hGPR119 HEK293-CRE β-lactamase reporter assay. The following applies: one value per run; for EC50: hGPR119-HEK-CRE-β-lactamase cells, 16 hours incubation; for Emax: read-out: Intrinsic Activity*. How it is done: The assay for GPR119 agonists utilizes a cell-based (hGPR119 HEK293-CRE β-lactamase) reporter construct where agonist activation of human GPR119 is coupled to β-lactamase production via a cyclic AMP response element (CRE). GPR119 activity is then measured utilizing a FRET-enabled R-lactamase substrate, CCF4-AM (Live Blazer FRET-B/G Loading kit, Invitrogen cat #K1027). Specifically, hGPR119-HEK-CRE-β-lactamase cells (Invitrogen 2.5×10^7/mL) were removed from liquid nitrogen storage, and diluted in plating medium (Dulbecco's modified Eagle medium high glucose (DMEM; Gibco Cat #11995-065), 10% heat inactivated fetal bovine serum (HIFBS; Sigma Cat #F4135), 1× MEM Nonessential amino acids (Gibco Cat #15630-080), 25 mM HEPES pH 7.0 (Gibco Cat #15630-080), 200 nM potassium clavulanate (Sigma Cat #P3494). The cell concentration was adjusted using cell plating medium and 50 μL of this cell suspension (12.5×10^4 viablecells) was added into each well of a black, clear bottom, poly-d-lysine coated 384-well plate (Greiner Bio-One cat #781946) and incubated at 37° C. in a humidified environment containing 5% carbon dioxide. After 4 hours the plating medium was removed and replaced with 40 μL of assay medium (Assay medium is plating medium without potassium clavulanate and HIFBS). Varying concentrations of each compound to be tested was then added in a volume of 10 uL (final DMSO≦0.5%) and the cells were incubated for 16 hours at 37° C. in a humidified environment containing 5% carbon dioxide. Plates were removed from the incubator and allowed to equilibrate to room temperature for approximately 15 minutes. 10 uL of 6× CCF4/AM working dye solution (prepared according to instructions in the Live Blazer FRET-B/G Loading kit, Invitrogen cat #K1027) was added per well and incubated at room temperature for 2 hours in the dark. Fluorescence was measured on an EnVision fluorimetric plate reader, excitation 405 nm, emission 460 nm/535 nm. EC50 determinations were made from agonist-response curves analyzed with a curve fitting program using a 4-parameter logistic dose-response equation.
(In general: A reporter such as luciferase makes a cellular process visible.)

[1] abbreviates: percent of maximal activity relative to standard GPR119 agonist at a final concentration of 10 μM.

One may read the EC50 as the midpoint of the concentration-response curve. A higher EC50 goes with a need for much substance.

Several values for one entry are separate records, joined by “and”; a condition that tells them apart may be missing. Equal values may be shown once.

`CC(C)OC(=O)N1C[C@H]2COC[C@@H](C1)[C@@H]2Oc1ncnc2c1CCN2c1ccc(S(C)(=O)=O)cc1F` [Example 1, Isopropyl 9-syn-({7-[2-fluoro-4-(methylsulfonyl)phenyl]-6,7-dihydro-5H-pyrrolo[2,3-d]pyrimidin-4-yl}oxy)-3-oxa-7-azabicyclo[3.3.1]nonane-7-carboxylate]: the half-maximal effective concentration (EC50) was 10.5 nM and 12.8 nM and 23.3 nM. For the same compound, under setting [1], the “Intrinsic Activity*” value is 88% and 87%; the Emax is 90%.
In turn, `CC(C)OC(=O)N1C[C@H]2COC[C@@H](C1)[C@H]2Oc1ncnc2c1CCN2c1ccc(S(C)(=O)=O)cc1F` [Example 2, Isopropyl 9-anti-({7-[2-fluoro-4-(methylsulfonyl)phenyl]-6,7-dihydro-5H-pyrrolo[2,3-d]pyrimidin-4-yl}oxy)-3-oxa-7-azabicyclo[3.3.1]nonane-7-carboxylate] showed an EC50 of 23.8 nM. Further, under setting [1], the Emax amounted to 93%.
